Laboratory results reported in patent publication US20240398771A1, “TREATMENT OF SCLERODERMA AND RAYNAUD'S SYNDROME” (Aisa Pharma, Inc., priority 2023, published 2024).

Columns and labels:
Assay type in all cases: in vivo, human
participants with SSc-RP [1] = test: Frequency of weekly symptomatic RP attacks (patient diary), Phase 2a Part A; conditions: ITT Part A
Experimental: (§1) Part A—Double-blind, Placebo-controlled, Parallel-group, Dose selection, will assess the safety and efficacy of two doses of cilnidipine (10 mg and 20 mg), alone and in combination with tadalafil. A total of 36 participants will be randomized to one of six pre-specified treatment arms. See Example 3 for data obtained in this phase of the study thus far, on 11 participants.
(§2) Please refer to FIG. 1 for treatment arms in Part A of the study. Dosing lasted or will last for 12 (±2) days in which participants self-administered or will self-administer daily doses of assigned treatment in the morning. Each participant took or will take one capsule and one tablet to blind the active therapy being received.
(§3) The relevant metrics measured by this tool daily are: • Study medication • SSc-RP symptoms (Reporting an attack including duration of attack) • Severity of the attack considering all symptoms of the attack e.g. tingling, numbness, pain, color changes (VAS 0-10 cm scale) • Participant's location at the time of the attack (inside home/outside home) • Selecting symptoms experienced during the attack (tingling, numbness, pain, color changes, other) • Pain rating during the attack (11-point Likert scale) • The RCS based on how much difficulty participants had with Raynaud's today, how many attacks the participant had, and how long they lasted. Participants will also be asked to consider how much pain, numbness, or other symptoms the Raynaud's caused in fingers (including painful sores), and how much the Raynaud's alone affected the use of hands today (VAS 0-10 cm scale).
(§4) Percent change from baseline evaluation for frequency of weekly RP attacks were or will be used as the primary efficacy variable. The sponsor-developed participant-informed diary will be used to record data. Frequency of weekly RP attacks is defined as the total number of RP attacks divided by the number of days with available diary data within the last 7 days of each dosing period then multiplied by 7. Total number of RP attacks during the last 7 days of screening period divided by the number of days with available data then multiplied by 7 will be used as baseline for the analysis of all periods.
(§5) Percentage change={(weekly RP attacks for the last 7 days of each dosing period−Baseline weekly RP attacks)/Baseline weekly RP attacks}*100%.
(§6) Absolute change=weekly RP attacks for the last 7 days of each dosing period−Baseline weekly RP attacks
(§7) Percent change from baseline evaluation for frequency of weekly RP attacks was and will be the primary efficacy endpoint. Frequency of weekly RP attacks is defined as the total number of RP attacks divided by the number of days with available diary data within the last 7 days of each dosing period then multiplied by 7. Total number of RP attacks during the last 7 days of screening period divided by the number of days with available data then multiplied by 7 will be used as baseline for the analysis of all periods.
(§8) The following data was actually obtained in accordance with the protocol and plan delineated in Examples 1 and 2. The accompanying data involved 11 patients out of the planned 76 patient study. The study was done in patients with scleroderma (systemic sclerosis) who had relatively frequent Raynaud symptoms as they needed to average at least one attack per day during a screening period of up to two weeks. In this first phase of this double-blind placebo-controlled, prospective randomized study, patients were treated in parallel and after meeting study criteria were randomized to receive either placebo, cilnidipine 10 mg daily, cilnidipine 20 mg daily, tadalafil 5 mg daily, cilnidipine 10 mg plus 5 mg of tadalafil, or cilnidipine 20 mg plus 5 mg of tadalafil.

participants with SSc-RP [2] = test: Frequency of weekly RP attacks, all attacks (patient diary; primary endpoint); conditions: Table A-5, ITT Part A
Experimental: as §1, §2, §3, §4, §5, §6, §7, §8
Results: Patients in the study were administered the Scleroderma Health Assessment Questionnaire (SHAQ) at the time of study entry and during clinic visits following the treatment period. […]

participants with SSc-RP [3] = test: SHAQ Visual Analog Scale - Raynaud's; design: Visual Analog Scale-Raynaud's, Baseline, Mean / Visual Analog Scale-Raynaud's, Baseline, Median / Visual Analog Scale-Raynaud's, In Clinic Visit (Day 12), Mean / Visual Analog Scale-Raynaud's, In Clinic Visit (Day 12), Median: scale not given here; conditions: Tadalafil 5 mg; Modified ITT, Part A
From the text: The SHAQ includes a Raynaud's VAS, which will be reported at screening and each in-clinic visit. The absolute change in Raynaud-VAS, assessed by the participants response to the SHAQ question ‘In the past 7 days, how much have your Raynaud's interfered with your daily activities?’ at baseline and the end of each dosing period will be calculated similar to frequency data as before. […]

[4] = Table A-1, last 7 days of dosing period
[5] = Table A-1, last 7 days of dosing vs last 7 days of screening
[6] = Table A-2, excluding outliers, last 7 days of dosing period
[7] = Table A-3 by baseline RCS, second sub-table (heading not given; RCS >5.0)
[8] = last 7 days of dosing vs last 7 days of screening

For CN1CC(=O)N2[C@H](c3ccc4c(c3)OCO4)c3[nH]c4ccccc4c3C[C@@H]2C1=O [Tadalafil], which “Weekly Symptomatic RP Attacks, Min” value (participants with SSc-RP [1]; [4]) is on record?
The value was 7.0.

What about the “Weekly Symptomatic RP Attacks, Q1” value (participants with SSc-RP [1]; [4]) of the same molecule?
Its value is 7.00.

What about the “Weekly Symptomatic RP Attacks Change from Baseline, Mean (SD)” value (participants with SSc-RP [1]; [5]) of the same molecule?
Its value is 4.50 (2.121).

What about the “Weekly Symptomatic RP Attacks Change from Baseline, Median” value (participants with SSc-RP [1]; [5]) of the same molecule?
The value was 4.50.

And the “Weekly Symptomatic RP Attacks Change from Baseline, Min” value (participants with SSc-RP [1]; [5])?
Its value is 3.0.

And the “Weekly Symptomatic RP Attacks Change from Baseline, Q1” value (participants with SSc-RP [1]; [5])?
Its value is 3.00.

What about the “Weekly Symptomatic RP Attacks Percent Change from Baseline, Max” value (participants with SSc-RP [1]; [5]) of the same molecule?
Its value is 75.0%.

And the “Weekly Symptomatic RP Attacks Percent Change from Baseline, Q3” value (participants with SSc-RP [1]; [5])?
The value was 75.00%.

What about the “Weekly Symptomatic RP Attacks Change from Baseline, Max” value (participants with SSc-RP [1]; Table A-2, excluding outliers) of the same molecule?
The value was 6.0, 6.0.

And the “Weekly Symptomatic RP Attacks Change from Baseline, Q3” value (participants with SSc-RP [1]; Table A-2, excluding outliers)?
Its value is 6.00, 6.00.

And the “Weekly Symptomatic RP Attacks Percent Change from Baseline, Min” value (participants with SSc-RP [1]; Table A-2, excluding outliers)?
Its value is 50.0, 50.0%.

What about the “Weekly Symptomatic RP Attacks Percent Change from Baseline, Q1” value (participants with SSc-RP [1]; Table A-2, excluding outliers) of the same molecule?
The value was 50.00, 50.00%.

And the “Weekly Symptomatic RP Attacks, Max” value (participants with SSc-RP [1]; [6])?
The value was 18.0, 18.0.

And the “Weekly Symptomatic RP Attacks, Q3” value (participants with SSc-RP [1]; [6])?
The value was 18.00, 18.00.

And the “Weekly Symptomatic RP Attacks Change from Baseline, Max” value (participants with SSc-RP [1]; [7])?
The value was 6.0.

What about the “Weekly Symptomatic RP Attacks Change from Baseline, Min” value (participants with SSc-RP [1]; [7]) of the same molecule?
Its value is 3.0.

And the “Weekly Symptomatic RP Attacks Change from Baseline, Q1” value (participants with SSc-RP [1]; [7])?
Its value is 3.00.

What about the “Weekly Symptomatic RP Attacks Change from Baseline, Q3” value (participants with SSc-RP [1]; [7]) of the same molecule?
Its value is 6.00.

What about the “Weekly Symptomatic RP Attacks Percent Change from Baseline, Max” value (participants with SSc-RP [1]; [7]) of the same molecule?
Its value is 75.0%.

What about the “Weekly Symptomatic RP Attacks Percent Change from Baseline, Min” value (participants with SSc-RP [1]; [7]) of the same molecule?
Its value is 50.0%.

And the “Weekly Symptomatic RP Attacks Percent Change from Baseline, Q1” value (participants with SSc-RP [1]; [7])?
Its value is 50.00%.

And the “Weekly Symptomatic RP Attacks Percent Change from Baseline, Q3” value (participants with SSc-RP [1]; [7])?
The value was 75.00%.

And the “Weekly Symptomatic RP Attacks, Max” value (participants with SSc-RP [1]; [7])?
Its value is 18.0.

What about the “Weekly Symptomatic RP Attacks, Min” value (participants with SSc-RP [1]; [7]) of the same molecule?
The value was 7.0.

What about the “Weekly Symptomatic RP Attacks, Q1” value (participants with SSc-RP [1]; [7]) of the same molecule?
Its value is 7.00.

And the “Weekly Symptomatic RP Attacks, Q3” value (participants with SSc-RP [1]; [7])?
Its value is 18.00.

And the “Weekly RP Attacks (All Attacks), Max” value (participants with SSc-RP [2]; last 7 days of dosing period)?
The value was 19.0.

What about the “Weekly RP Attacks (All Attacks), Min” value (participants with SSc-RP [2]; last 7 days of dosing period) of the same molecule?
Its value is 7.0,.

What about the “Weekly RP Attacks (All Attacks), Q1” value (participants with SSc-RP [2]; last 7 days of dosing period) of the same molecule?
Its value is 7.00,.

And the “Weekly RP Attacks (All Attacks), Q3” value (participants with SSc-RP [2]; last 7 days of dosing period)?
Its value is 19.00.

And the “Weekly RP Attacks (All Attacks) Change from Baseline, Max” value (participants with SSc-RP [2]; [8])?
The value was 6.0.

What about the “Weekly RP Attacks (All Attacks) Change from Baseline, Min” value (participants with SSc-RP [2]; [8]) of the same molecule?
Its value is 0.0,.

What about the “Weekly RP Attacks (All Attacks) Change from Baseline, Q1” value (participants with SSc-RP [2]; [8]) of the same molecule?
Its value is 0.00,.

What about the “Weekly RP Attacks (All Attacks) Change from Baseline, Q3” value (participants with SSc-RP [2]; [8]) of the same molecule?
The value was 6.00.

And the “Weekly RP Attacks (All Attacks) Percent Change from Baseline, Min” value (participants with SSc-RP [2]; [8])?
The value was 0.0, %.

And the “Weekly RP Attacks (All Attacks) Percent Change from Baseline, Q1” value (participants with SSc-RP [2]; [8])?
The value was 0.00, %.

And the “Visual Analog Scale-Raynaud's, Baseline, Median” value (participants with SSc-RP [3])?
Its value is 0.500.

What about the “Visual Analog Scale-Raynaud's, Change from Baseline, Median” value (participants with SSc-RP [3]) of the same molecule?
The value was −0.150.

What about the “Visual Analog Scale-Raynaud's, In Clinic Visit (Day 12), Mean” value (participants with SSc-RP [3]) of the same molecule?
Its value is 1.500.

And the “Visual Analog Scale-Raynaud's, In Clinic Visit (Day 12), Median” value (participants with SSc-RP [3])?
Its value is 0.400.

And the “Visual Analog Scale-Raynaud's, Percent Change from Baseline, Mean” value (participants with SSc-RP [3])?
Its value is −20.78%.

What about the “Visual Analog Scale-Raynaud's, Percent Change from Baseline, Median” value (participants with SSc-RP [3]) of the same molecule?
The value was −37.35%.
